Experimental data: patent US20050026833A1, “PSP-94: use for treatment of hypercalcemia and bone metastasis” (priority 2001, published 2005)
“Also recorded” adds a separate entry of the source.

B1: PSP-94: prostate secretory protein of 94 amino acids; native human seminal plasma PSP-94 (protein)
chain: SCYFIPNEGVPGDSTRKCMDLKGNKHPINSEWQTDNCETCTCYETEISCCTLVSTPVGYDKDNCQRIFKKEDCKYIVVEKKDPKKTCSVSEWII

Columns and labels:
[1] = Plasma calcium by atomic absorption spectrophotometry in tumor bearing animals; assay type: in vivo, male Copenhagen rats
Procedure: (§1) Control animals received PBS alone as vehicle control.
Other Analytical Methods. Plasma calcium levels were determined by atomic absorption spectrophotometry (model 703, Perkin-Elmer, Norwalk, Conn.). For plasma PTHrP, all samples were tested in two dilutions in PTHrP radio-immunoassay (R.I.A.) kit (Nichols Institute Diagnostics, San Juan Capistrano, Calif.) according to manufacturer's instructions.
Comparison was made between plasma collected from normal, non-tumor bearing animals (N), control tumor bearing animals receiving vehicle alone (CTL) and plasma collected from experimental animals receiving different doses of PSP-94 (0.1-10.0 ug/kg/day). Plasma calcium levels were determined by atomic absorption spectrophotometry (model 703, Perkin-Elmer, Norwalk, Conn.). For plasma PTHrP, all samples were tested in two dilutions in PTHrP R.I.A. kit (Nichols Institute Diagnostics, San Juan Capistrano, Calif.) according to manufacturers instructions.
FIGS. 10A and 10B show male Copenhagen rats inoculated s.c. with 10^6 Mat Ly Lu-PTHrP cells. Following 3 days of tumor cell inoculation, animals were treated with vehicle alone (Ctl) or different doses (1.0, or 10.0 ug/kg/day) of PSP-94 for 18 days. Animals were sacrificed on day 21 and plasma PTHrP (FIG. 10A; expressed in picomole equivalents/liter) or plasma calcium (FIG. 10B; expressed in millimolar (mM)) levels were determined. Results for non-tumor bearing animals are also shown (N).
Plasma calcium levels from non-tumor bearing animals are also shown (N).

Mat Ly Lu-PTHrP tumors = assay: S.C. Mat Ly Lu-PTHrP tumor growth (volume, weight) in Copenhagen rats; assay type: in vivo, male Copenhagen rats
Procedure: as §1
Starting from the day of tumor cell inoculation animals were infused S.C., below the tumor cell inoculation site, with different doses of PSP-94 (0.1-10.0 ug/kg/day) for up to 15 days.
In FIG. 2B male Copenhagen rats were inoculated s.c with 10^6 Mat Ly Lu-PTHrP cells. After 3 days of tumor cell inoculation, animals were injected with vehicle alone (Ctl) or different doses (0.1, 1, 10 ug/kg) of PSP-94 (nPSP) at the site of tumor cell injection. Tumor volume (expressed in cubic centimeter (cm^3)) was determined at timed intervals.
At the end of the study tumors from control (CTL), vehicle treated animals and PSP-94 treated animals were excised and weighed.

[2] = tested on: Mat Ly Lu-PTHrP skeletal metastasis; assay: I.C. inoculation skeletal metastasis model, hind limb paralysis; assay type: in vivo, male Copenhagen rats
Procedure: Animal Protocols. Inbred male Copenhagen rats weighing 200-250g were obtained from Harlan Sprague-Dawley (Indianapolis, Ind.). Before inoculation, Mat Ly Lu-PTHrP tumor cells growing in serum-containing medium were washed with Hanks buffer, trypsinized, and collected by centrifugation at 1500 rpm for 5 min. […] Animals were divided into control groups which received vehicle alone (PBS: phosphate buffered saline) and experimental groups which were infused I.P. with different doses (0.1-10.0 ug/kg/day) of PSP-94 starting at the time of tumor cell inoculation (day 0) until the day of skeletal metastasis development. The time after tumor cell inoculation which was required to develop hind limb paralysis (an index of spinal cord compression due to lumbar vertebrae metastasis) was determined and percentage of starting number of animals developing hind-limb paralysis was plotted.
Alternatively, cell pellets (10×10^3 cells) were resuspended in 100ul saline and injected using 1 ml syringes into the left ventricle of rats anaesthetised with ketamine/xylazine cocktail. […] The time after tumor cell inoculation which was required to develop hind limb paralysis (an index of spinal cord compression due to lumbar vertebrae metastasis) was determined and percentage of starting number of animals developing hind-limb paralysis was plotted. In other sets of experiments, following I.C. tumor cell inoculation, control animals receiving PBS and experimental animals receiving 100.0 ug/kg/day of PCK3145 were sacrificed before the development of hind-limb paralysis (day 10 post tumor cell inoculation) and their vertebral column spanning from L1-L5 was removed and subjected to bone histomorphometric and immunohistochemical analysis as described herein.
Thus, male Copenhagen rats were inoculated via I.C. route into the left ventricle with 10×10^3 Mat Ly Lu-PTHrP cells. Starting on the time of tumor cell inoculation (day 0) animals were infused with different doses of PSP-94 (0.1-10.0 ug/kg/day) until the day of development of hind-limb paralysis as described herein. Animals receiving vehicle alone as control (CTL) or PSP-94 were monitored daily for the development of hind-limb paralysis and % animals not paralyzed at different time points in each group was calculated.
Male Copenhagen rats were inoculated with Mat Ly L u-PTHrP cells (10×10^3) into the left ventricle via I.C. injections. Starting on the day of tumor cell inoculation (day 0), experimental animals received different doses of PCK3145 (1.0-100.0 ug/kg/day) via I.P. route. To evaluate the effect of PCK3145 on delaying the development of experimental skeletal metastasis, animals were evaluated daily by monitoring of the animals for the development of hind-limb paralysis. […]

Mat Ly Lu-PTHrP cells = assay: Mat Ly Lu-PTHrP cell growth curve (Coulter counter); assay type: cell-based, rat
Procedure: Growth curve. For growth curves, Mat Ly Lu-PTHrP cells were plated in 6-well plates (Falcon Plastics, Oxnard, Calif.) at seeding densities of 5×10^3 cells/well. Mat Ly Lu-PTHrP cells were grown in the presence of 0.1, 1.0 & 10.0 ug/ml of PSP-94 or vehicle alone for up to 3 days and the ability of PSP-94 to alter cell doubling time was evaluated daily. Medium was changed every two days. The number of cells was counted in a model Z Coulter counter (Coulter Electronics, Beds, UK). Comparison was also made with doubling time of wild type untransfected Mat Ly Lu cells.
Mat Ly Lu cells transfected with vector alone (CMV) or vector expressing PTHrP were seeded at a density of 5×10^3 cells/well in 6-well plates. Mat Ly Lu-PTHrP cells were treated with PSP-94 and were trypsinized and counted using a coulter counter as described herein. Change in cell number following treatment with 10.0 ug/ml of PSP-94 for 72 hrs is illustrated in FIG. 1.
Mat Ly Lu-PTHrP cells were seeded at a density of 5×10^3 cells/well in 6-well plates and treated with different doses (1.0-100.0 ug/ml) of PCK3145 for up to 5 days and were trypsinized and counted using a coulter counter as described herein.

Molecule | plasma calcium levels ([1]; 100.0 ug/kg PCK3145, relative to lower doses) | plasma calcium levels ([1]; different doses of PCK3145, day 16, vs vehicle) | tumor volume (Mat Ly Lu-PTHrP tumors; PCK3145 1.0-100.0 ug/kg/day S.C. for 15 days, vs vehicle) | tumor weight (Mat Ly Lu-PTHrP tumors; different doses of PCK3145, day 16 (data not shown), vs vehicle) | number of animals developing hind limb paralysis ([2]; 100.0 ug/kg/day PCK3145 I.P. from day 0, vs vehicle) | time of developing hind limb paralysis ([2]; 1.0 and 10.0 ug/kg/day PCK3145 I.P. (data not shown)) | cell growth (Mat Ly Lu-PTHrP cells; PCK3145 1.0-100.0 ug/ml up to 5 days, vs vehicle) | cell number (Mat Ly Lu-PTHrP cells; PCK3145 highest dose 100.0 ug/ml, vs vehicle) | plasma calcium levels ([1]; different doses of PSP-94, day 16, vs vehicle) | plasma calcium levels ([1]; highest dose of PSP-94, 10.0 ug/kg/day) | tumor volume (Mat Ly Lu-PTHrP tumors; 10.0 ug/kg/day PSP-94 as compared to 1.0 ug/kg/day PSP-94) | tumor volume (Mat Ly Lu-PTHrP tumors; PSP-94 0.1-10.0 ug/kg/day S.C. up to 15 days, vs vehicle) | tumor weight (Mat Ly Lu-PTHrP tumors; PSP-94 0.1-10.0 ug/kg/day, tumors excised day 16, vs vehicle) | number of animals developing hind limb paralysis (delay in skeletal metastasis) ([2]; 10.0 ug/kg/day PSP-94 from day 0, vs vehicle) | time of hind limb paralysis ([2]; 0.1 and 1.0 ug/kg/day PSP-94 (data not shown)) | MatLyLu-PTHrP cell growth (Mat Ly Lu-PTHrP cells; 10.0 ug/ml PSP-94 for 72 hrs, vs cells without PSP-94)
E W Q T D N C E T C T C Y E T (EWQTDNCETCTCYET; PCK3145 (polypeptide 31-45)) | more pronounced | significant reduction | significant dose-dependent reduction | dose-dependent decrease | statistically significant delay | no significant effect | dose dependent decrease | significant reduction |  |  |  |  |  |  |  | 
B1 |  |  |  |  |  |  |  |  | significant reduction; also recorded: dose-dependent decrease | near normalization | did not show a marked decrease | marked dose-dependent reduction | significant dose-dependent decrease | statistically significant delay; also recorded: modest (but measurable) delay | no significant effect | significant decrease
